Assay results from ChEMBL document CHEMBL3407349, “The discovery of Polo-like kinase 4 inhibitors: identification of (1R,2S).2-(3-((E).4-(((cis).2,6-dimethylmorpholino)methyl)styryl). 1H.indazol-6-yl)-5'-methoxyspiro[cyclopropane-1,3'-indolin]-2'-one (CFI-400945) as a potent, orally active antitumor agent” (J Med Chem, 2015).

Assays:
MDA-MB-468 [1] = assay: Growth inhibition of human MDA-MB-468 cells after 5 days by SRB assay; assay type: functional; settings: Homo sapiens, MDA-MB-468, 120 h
MCF7 = assay: Growth inhibition of human MCF7 cells after 5 days by SRB assay; assay type: functional; settings: Homo sapiens, MCF7, 120 h
HCC1954 = assay: Growth inhibition of human HCC1954 cells after 5 days by SRB assay; assay type: functional; settings: Homo sapiens, HCC1954, 120 h
MDA-MB-231 = assay: Growth inhibition of human MDA-MB-231 cells after 5 days by SRB assay; assay type: functional; settings: Homo sapiens, MDA-MB-231, 120 h
[2] = Growth inhibition of human HMEC cells after 5 days by SRB assay; assay type: cell-based; settings: HMEC cells
Cytochrome P450 1A2 = biological target: T1, Cytochrome P450 1A2 (Homo sapiens, UniProt P05177); assay: Inhibition of CYP1A2 (unknown origin) by fluorescence assay; assay type: ADME
T1 sequence (P05177 whole entry): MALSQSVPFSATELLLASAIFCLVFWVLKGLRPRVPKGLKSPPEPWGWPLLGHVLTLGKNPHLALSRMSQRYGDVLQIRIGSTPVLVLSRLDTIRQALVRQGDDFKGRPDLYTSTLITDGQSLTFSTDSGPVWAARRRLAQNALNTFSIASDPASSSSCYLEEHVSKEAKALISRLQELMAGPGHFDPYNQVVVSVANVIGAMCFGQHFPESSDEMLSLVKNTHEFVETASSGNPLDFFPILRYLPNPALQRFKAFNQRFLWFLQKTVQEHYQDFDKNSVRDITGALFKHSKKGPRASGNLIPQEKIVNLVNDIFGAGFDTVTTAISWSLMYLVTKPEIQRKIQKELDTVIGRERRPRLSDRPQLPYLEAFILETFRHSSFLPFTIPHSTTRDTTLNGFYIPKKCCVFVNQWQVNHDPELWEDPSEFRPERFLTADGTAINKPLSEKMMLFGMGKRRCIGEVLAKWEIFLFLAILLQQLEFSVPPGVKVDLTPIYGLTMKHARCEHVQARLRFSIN

Cytochrome P450 2D6 = Cytochrome P450 2D6 (Homo sapiens, UniProt P10635); assay: Inhibition of CYP2D6 (unknown origin) by fluorescence assay; assay type: ADME
Cytochrome P450 2D6, sequence (P10635 whole entry): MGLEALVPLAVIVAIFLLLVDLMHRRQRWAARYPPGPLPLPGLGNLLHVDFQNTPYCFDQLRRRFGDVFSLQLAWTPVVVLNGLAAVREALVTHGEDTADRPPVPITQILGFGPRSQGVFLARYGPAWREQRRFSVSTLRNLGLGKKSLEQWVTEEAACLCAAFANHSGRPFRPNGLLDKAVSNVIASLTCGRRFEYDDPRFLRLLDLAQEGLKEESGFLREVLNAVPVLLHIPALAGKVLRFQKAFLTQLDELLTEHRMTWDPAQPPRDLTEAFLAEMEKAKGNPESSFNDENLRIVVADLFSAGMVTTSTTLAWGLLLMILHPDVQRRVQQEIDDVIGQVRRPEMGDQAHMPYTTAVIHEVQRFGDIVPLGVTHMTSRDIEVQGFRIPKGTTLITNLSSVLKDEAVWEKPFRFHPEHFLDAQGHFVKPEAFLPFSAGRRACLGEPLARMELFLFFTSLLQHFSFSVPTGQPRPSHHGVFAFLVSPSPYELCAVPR

Cytochrome P450 2C9 = Cytochrome P450 2C9 (Homo sapiens, UniProt P11712); assay: Inhibition of CYP2C9 (unknown origin) by fluorescence assay
Cytochrome P450 2C9, sequence (P11712 whole entry): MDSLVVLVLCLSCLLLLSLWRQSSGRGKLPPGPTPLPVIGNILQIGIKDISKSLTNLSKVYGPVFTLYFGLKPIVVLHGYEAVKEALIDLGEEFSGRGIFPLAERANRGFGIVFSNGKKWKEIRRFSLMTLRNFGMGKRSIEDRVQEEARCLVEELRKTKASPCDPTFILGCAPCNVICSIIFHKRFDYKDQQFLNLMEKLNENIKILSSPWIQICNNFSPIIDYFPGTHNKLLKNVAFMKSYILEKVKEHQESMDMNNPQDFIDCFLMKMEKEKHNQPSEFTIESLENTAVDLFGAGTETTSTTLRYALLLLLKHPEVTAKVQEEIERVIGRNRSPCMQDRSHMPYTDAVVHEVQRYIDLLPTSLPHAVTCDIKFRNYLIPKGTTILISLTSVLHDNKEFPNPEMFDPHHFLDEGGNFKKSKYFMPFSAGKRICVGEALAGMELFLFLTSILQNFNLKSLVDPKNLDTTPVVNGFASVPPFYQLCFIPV

Cytochrome P450 2C19 = Cytochrome P450 2C19 (Homo sapiens, UniProt P33261); assay: Inhibition of CYP2C19 (unknown origin) by fluorescence assay
Cytochrome P450 2C19, sequence (P33261 whole entry): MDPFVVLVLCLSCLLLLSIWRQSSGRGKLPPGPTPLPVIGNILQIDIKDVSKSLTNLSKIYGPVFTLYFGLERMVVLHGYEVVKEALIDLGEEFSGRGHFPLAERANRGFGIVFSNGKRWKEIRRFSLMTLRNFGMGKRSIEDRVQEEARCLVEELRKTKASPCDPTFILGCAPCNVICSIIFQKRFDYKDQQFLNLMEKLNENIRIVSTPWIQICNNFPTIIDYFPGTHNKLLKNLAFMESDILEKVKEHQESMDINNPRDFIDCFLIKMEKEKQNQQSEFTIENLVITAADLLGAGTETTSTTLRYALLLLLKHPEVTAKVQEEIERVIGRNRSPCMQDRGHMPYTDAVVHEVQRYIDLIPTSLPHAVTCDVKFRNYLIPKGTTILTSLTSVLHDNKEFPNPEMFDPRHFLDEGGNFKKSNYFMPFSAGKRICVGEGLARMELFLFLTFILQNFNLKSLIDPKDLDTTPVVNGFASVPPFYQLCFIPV

[3] = Half life in mouse liver microsomes; settings: liver microsomes
[4] = Half life in rat liver microsomes; settings: liver microsomes
[5] = Half life in dog liver microsomes; settings: liver microsomes
[6] = Half life in human liver microsomes; settings: liver microsomes
[7] = Cmax in athymic CD1 nude mouse at 25 mg/kg, po by LC/MS/MS analysis; assay type: ADME, organism-based; parameters: dose 25 mg/kg, route oral; settings: in vivo
[8] = AUC in athymic CD1 nude mouse at 25 mg/kg, po by LC/MS/MS analysis; assay type: ADME, organism-based; parameters: dose 25 mg/kg, route oral; settings: plasma
Rattus norvegicus = assay: Clearance in Sprague-Dawley rat at 1 mg/kg, iv; assay type: ADME, organism-based; parameters: dose 1 mg/kg, route intravenous; settings: in vivo
[9] = Half life in Sprague-Dawley rat at 1 mg/kg, iv; assay type: ADME, organism-based; parameters: dose 1 mg/kg, route intravenous; settings: in vivo
[10] = AUC(infinity) in Sprague-Dawley rat at 1 mg/kg, iv; assay type: ADME, organism-based; parameters: time infinity, dose 1 mg/kg, route intravenous; settings: plasma
[11] = AUC(infinity) in Sprague-Dawley rat at 5 mg/kg, po; assay type: ADME, organism-based; parameters: dose 5 mg/kg, route oral, time infinity; settings: plasma
[12] = Oral bioavailability in Sprague-Dawley rat at 5 mg/kg; assay type: ADME, organism-based; settings: in vivo
Canis familiaris = assay: Clearance in beagle dog at 1 mg/kg, iv; assay type: ADME, organism-based, Canis lupus familiaris; parameters: dose 1 mg/kg, route intravenous; settings: in vivo
[13] = Half life in beagle dog at 1 mg/kg, iv; assay type: ADME, organism-based, Canis lupus familiaris; parameters: dose 1 mg/kg, route intravenous; settings: in vivo
[14] = AUC(infinity) in beagle dog at 1 mg/kg, iv; assay type: ADME, organism-based, Canis lupus familiaris; parameters: time infinity, dose 1 mg/kg, route intravenous; settings: plasma
[15] = AUC(infinity) in beagle dog at 5 mg/kg, po; assay type: ADME, organism-based, Canis lupus familiaris; parameters: time infinity, dose 5 mg/kg, route oral; settings: plasma
[16] = Oral bioavailability in beagle dog at 5 mg/kg; assay type: ADME, organism-based, Canis lupus familiaris; settings: in vivo
[17] = Growth inhibition of human SKBR3 cells after 5 days by SRB assay; assay type: functional; settings: SK-BR-3, 120 h
[18] = Growth inhibition of human CAL51 cells after 5 days by SRB assay; assay type: functional; settings: CAL-51, 120 h
[19] = Growth inhibition of human BT20 cells after 5 days by SRB assay; assay type: functional; settings: BT-20, 120 h
A549 [20] = assay: Growth inhibition of human A549 cells after 5 days by SRB assay; assay type: functional; settings: A549, 120 h
[21] = Growth inhibition of human OVCAR3 cells after 5 days by SRB assay; assay type: functional; settings: OVCAR-3, 120 h
SW-620 = assay: Growth inhibition of human SW620 cells after 5 days by SRB assay; assay type: functional; settings: SW-620, 120 h
[22] = Growth inhibition of human COLO205 cells after 5 days by SRB assay; assay type: functional; settings: COLO 205, 120 h
[23] = Growth inhibition of human HCT116 cells after 5 days by SRB assay; assay type: functional; settings: HCT-116, 120 h
Angiopoietin-1 receptor [24] = biological target: T2, Angiopoietin-1 receptor (Homo sapiens, UniProt Q02763); assay: Inhibition of TIE2 (unknown origin) by FRET analysis
T2 sequence (Q02763 whole entry): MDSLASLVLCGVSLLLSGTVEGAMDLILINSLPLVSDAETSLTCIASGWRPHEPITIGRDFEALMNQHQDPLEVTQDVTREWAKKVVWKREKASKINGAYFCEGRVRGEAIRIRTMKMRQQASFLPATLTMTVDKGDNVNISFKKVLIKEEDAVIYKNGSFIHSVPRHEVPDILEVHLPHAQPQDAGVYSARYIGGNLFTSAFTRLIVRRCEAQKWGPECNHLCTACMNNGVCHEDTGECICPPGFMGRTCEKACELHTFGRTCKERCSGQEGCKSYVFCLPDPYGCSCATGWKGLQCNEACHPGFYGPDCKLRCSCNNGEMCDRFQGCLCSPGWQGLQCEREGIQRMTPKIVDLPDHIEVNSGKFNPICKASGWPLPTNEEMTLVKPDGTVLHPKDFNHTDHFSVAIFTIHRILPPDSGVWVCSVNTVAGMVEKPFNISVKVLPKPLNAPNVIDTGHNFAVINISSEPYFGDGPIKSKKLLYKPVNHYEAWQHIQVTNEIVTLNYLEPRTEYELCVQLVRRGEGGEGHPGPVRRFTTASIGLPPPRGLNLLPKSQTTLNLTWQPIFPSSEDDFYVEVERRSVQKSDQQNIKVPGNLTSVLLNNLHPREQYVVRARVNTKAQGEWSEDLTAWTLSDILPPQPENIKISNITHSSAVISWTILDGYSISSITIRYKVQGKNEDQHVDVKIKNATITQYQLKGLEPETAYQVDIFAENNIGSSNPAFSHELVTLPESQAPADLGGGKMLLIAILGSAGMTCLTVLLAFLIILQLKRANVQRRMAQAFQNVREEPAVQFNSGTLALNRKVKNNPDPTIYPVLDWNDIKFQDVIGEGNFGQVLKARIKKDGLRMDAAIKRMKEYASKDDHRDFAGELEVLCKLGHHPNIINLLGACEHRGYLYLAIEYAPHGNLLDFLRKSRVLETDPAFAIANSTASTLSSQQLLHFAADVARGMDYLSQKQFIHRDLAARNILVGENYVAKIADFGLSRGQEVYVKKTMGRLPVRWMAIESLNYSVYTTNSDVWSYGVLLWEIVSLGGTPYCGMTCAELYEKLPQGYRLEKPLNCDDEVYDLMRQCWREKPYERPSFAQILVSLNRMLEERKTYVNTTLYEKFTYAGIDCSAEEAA

Angiopoietin-1 receptor [25] = biological target: T2, Angiopoietin-1 receptor; assay: Inhibition of TIE2 (unknown origin) by cell-based assay
Mus musculus [26] = assay: Toxicity in CB-17 SCID mouse xenografted with human MDA-MB-468 cells assessed as mortality at 3 to 9.4 mg/kg, po qd administered for 21 days; assay type: organism-based; parameters: dose 3-9.4 mg/kg, route oral; settings: in vivo, 504 h
Mus musculus [27] = assay: Toxicity in CB-17 SCID mouse xenografted with human MDA-MB-468 cells assessed as loss in body weight at 3 to 9.4 mg/kg, po qd administered for 21 days relative to control; assay type: organism-based; parameters: dose 3-9.4 mg/kg, route oral; settings: in vivo, 504 h
MDA-MB-468 [28] = assay: Antitumor activity against human MDA-MB-468 cells xenografted in CB-17 SCID mouse assessed as tumor growth inhibition at 3 mg/kg, po qd administered for 21 days; assay type: functional; settings: MDA-MB-468, 504 h, read-out: TGI
MDA-MB-468 [29] = assay: Antitumor activity against human MDA-MB-468 cells xenografted in CB-17 SCID mouse assessed as tumor growth inhibition at 9.4 mg/kg, po qd administered for 21 days; assay type: functional; settings: MDA-MB-468, 504 h, read-out: TGI
[30] = Antitumor activity against human SW620 cells xenografted in CB-17 SCID mouse assessed as tumor growth inhibition at 3 mg/kg, po qd administered for 21 days; assay type: functional; settings: SW-620, 504 h, read-out: TGI
[31] = Antitumor activity against human SW620 cells xenografted in CB-17 SCID mouse assessed as tumor growth inhibition at 9.4 mg/kg, po qd administered for 21 days; assay type: functional; settings: SW-620, 504 h, read-out: TGI
A549 [32] = assay: Antitumor activity against human A549 cells xenografted in CB-17 SCID mouse assessed as tumor growth inhibition at 3 mg/kg, po qd administered for 21 days; assay type: functional; settings: A549, 504 h, read-out: TGI
A549 [33] = assay: Antitumor activity against human A549 cells xenografted in CB-17 SCID mouse assessed as tumor growth inhibition at 9.4 mg/kg, po qd administered for 21 days; assay type: functional; settings: A549, 504 h, read-out: TGI
[34] = Toxicity in po dosed athymic CD-1 nude mouse xenografted with human HCT116 cells administered qd 1-on/3-off schedule up to day 21; assay type: organism-based, HCT-116; settings: CD-1 athymic nude, in vivo
[35] = Antitumor activity against human HCT116 cells xenografted in athymic CD-1 nude mouse assessed as tumor growth inhibition at MTD, po qd administered 1-on/3-off schedule up to day 21; assay type: functional, HCT-116
[36] = Antitumor activity against human HCT116 cells xenografted in athymic CD-1 nude mouse assessed as tumor growth inhibition at MTD, po qd administered 1-on/3-off schedule up to day 21 measured on day 35; assay type: functional, HCT-116

In the case of `COc1ccc2c(c1)[C@]1(C[C@H]1c1ccc3c(/C=C/c4ccc(CN5C[C@@H](C)O[C@@H](C)C5)cc4)n[nH]c3c1)C(=O)N2` [OCIFISERTIB], the GI50 (MDA-MB-468 [1]) is reported as 6 nM, the GI50 (MCF7) is reported as 8 nM and the GI50 (HCC1954) is reported as 5 nM. The GI50 (MDA-MB-231) was 8600 nM, the GI50 at 120 h [2] was 9000 nM and the “inhibition (INH)” value (Cytochrome P450 1A2) was “Not Active”. For the same compound, the “inhibition (INH)” value (Cytochrome P450 2D6) was “Not Active”, the IC50 (Cytochrome P450 2C9) was 940 nM and the IC50 (Cytochrome P450 2C19) was 1400 nM. It also gave a half-life [3] of 24 min, a half-life [4] of 53 min and a half-life [5] of 43 min. The half-life [6] was greater than 60 min, the Cmax [7] was 2200 ng/mL and the AUC [8] was 9800 ng·h/mL. The clearance (Rattus norvegicus) was 31.7 mL/min/kg, the half-life [9] was 120 min and the AUC(0-inf) [10] was 534 ng·h/mL. It also gave an AUC(0-inf) [11] of 767 ng·h/mL, a bioavailability [12] of 21% and a clearance (Canis familiaris) of 16 mL/min/kg. It also gave a half-life [13] of 126 min, an AUC(0-inf) [14] of 1050 ng·h/mL and an AUC(0-inf) [15] of 3460 ng·h/mL. It also gave a bioavailability [16] of 66%, a GI50 [17] of 5300 nM and a GI50 [18] of 260 nM. The GI50 [19] was 58 nM, the GI50 (A549 [20]) was 5 nM and the GI50 [21] was 18 nM. The GI50 (SW-620) was 380 nM, the GI50 [22] was 17 nM and the GI50 [23] was 4 nM. For the same compound, the IC50 (Angiopoietin-1 receptor [24]) was 22 nM, the EC50 (Angiopoietin-1 receptor [25]) was 117 nM and the Activity (Mus musculus [26]) was “Non-toxic”. For the same compound, the Activity (Mus musculus [27]) was greater than 20%, the inhibition in vivo at 3 mg/kg (MDA-MB-468 [28]) was 57% and the inhibition in vivo at 9.4 mg/kg (MDA-MB-468 [29]) was 77%. It also gave an inhibition in vivo at 3 mg/kg [30] of 7%, an inhibition in vivo at 9.4 mg/kg [31] of 86% and an inhibition in vivo at 3 mg/kg (A549 [32]) of 32%. It also gave an inhibition in vivo at 9.4 mg/kg (A549 [33]) of 70%, an MTD at 21 days [34] of 39 mg/kg and a TGI [35] of 98%. For the same compound, the TGI [36] was 93%.
